Data as given in ChEMBL document CHEMBL1201862, “PubChem BioAssay data set” (2004).
Activity calls are given as the source filed them.

Assays:
[1] = Luminescence Cell-Based Dose Confirmation HTS to Identify Activators of 5'UTR Stem-Loop Driven Alpha-Synuclein mRNA Translation in H4 Neuroglioblastoma Cells. [Related pubchem assays: 1829 (Project Summary), 1814 (Primary HTS)]; assay type: functional
[2] = Luminescence Cell-Based Dose Response HTS to Identify Activators of Luciferase Translation or Activity in H4 […] Cells. [Related pubchem assays: 1829 (Project Summary), 1814 (Primary HTS)]; assay type: functional
[3] = system: HeLa; assay: Cytotoxicity counterscreen assay for transcriptional activators of heat shock protein 70 (Hsp70). [Related pubchem assays: 1203, 1252 ]; assay type: functional; conditions: Homo sapiens;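 also: cells exposed to compound for 16 hours before readout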
[4] = system: BJ; assay: cytotoxicity toward BJ-TERT fibroblasts, dose response, cell-based, RAS-independent, luminescence (AID 1933); assay type: functional; conditions: Homo sapiens
[5] = system: H4; assay: Luminescence Cell-Based Dose Response HTS to Identify Activators of 5'UTR Stem-Loop Driven Prion Protein mRNA Translation in H4 Neuroglioblastoma Cells. [Related pubchem assays: 1829 (Project Summary), 1814 (Primary HTS)]; assay type: functional; conditions: Homo sapiens
[6] = system: BJ; assay: cells; assay type: functional, cell-based; conditions: Homo sapiens
[7] = system: BJ; assay: cytotoxicity toward BJ-TERT-LT-ST fibroblasts, dose response, cell-based, RAS-independent, luminescence (AID 1935); assay type: functional; conditions: Homo sapiens;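 also: BJ fibroblasts immortalized with TERT plus LT and ST oncogenes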
[8] = cytotoxicity toward DRD oncogenic fibroblasts, dose response, cell-based, non-viral oncogenic, luminescence (AID 1934); assay type: functional; conditions: Homo sapiens
[9] = cytotoxicity in HEK-293T cells, dose response, cytotoxicity control for TCR NF-kB inhibitor project, luminescence, T-cell screen hits (AID 489026); assay type: functional, cell-based;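 also: cells exposed to compound about 14 hours before the viability readout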
[10] = molecular target: Heat shock protein HSP 90-alpha (Homo sapiens, UniProt P07900); assay type: functional, organism-based
[11] = system: BJ; assay: cytotoxicity toward Ras-transformed BJeLR fibroblasts, dose response, cell-based, alamar blue fluorescence, cherrypicked samples (AID 2631); assay type: functional; conditions: Homo sapiens;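 also: confirmatory dose-response assay in RAS-dependent BJ fibroblasts engineered with TERT, LT and ST, with cytotoxicity read by fluorescence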
[12] = system: INS1; assay: beta cell apoptosis inhibitors, cytokine rescue, dose response, luminescence, retest (AID 449756); assay type: functional, cell-based; conditions: Rattus norvegicus;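 also: cell death triggered by IL-1 beta plus TNF-alpha plus IFN-gamma mixture; protective hits raise ATP signal compared with cytokine alone wells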
[13] = system: Staphylococcus aureus; assay: Inhibitors of Bacterial Quorum Sensing Structure Activity Relationship (SAR) Analysis: Dose Response Assay. [Related pubchem assays: 700, 527 ]; assay type: functional, organism-based
[14] = molecular target: T1, Heat shock 70 kDa protein 1A (Homo sapiens, UniProt P0DMV8); assay: Hsp70 inhibitors, biochemical, TR-FRET (AID 786)
T1 sequence (P0DMV8 whole entry): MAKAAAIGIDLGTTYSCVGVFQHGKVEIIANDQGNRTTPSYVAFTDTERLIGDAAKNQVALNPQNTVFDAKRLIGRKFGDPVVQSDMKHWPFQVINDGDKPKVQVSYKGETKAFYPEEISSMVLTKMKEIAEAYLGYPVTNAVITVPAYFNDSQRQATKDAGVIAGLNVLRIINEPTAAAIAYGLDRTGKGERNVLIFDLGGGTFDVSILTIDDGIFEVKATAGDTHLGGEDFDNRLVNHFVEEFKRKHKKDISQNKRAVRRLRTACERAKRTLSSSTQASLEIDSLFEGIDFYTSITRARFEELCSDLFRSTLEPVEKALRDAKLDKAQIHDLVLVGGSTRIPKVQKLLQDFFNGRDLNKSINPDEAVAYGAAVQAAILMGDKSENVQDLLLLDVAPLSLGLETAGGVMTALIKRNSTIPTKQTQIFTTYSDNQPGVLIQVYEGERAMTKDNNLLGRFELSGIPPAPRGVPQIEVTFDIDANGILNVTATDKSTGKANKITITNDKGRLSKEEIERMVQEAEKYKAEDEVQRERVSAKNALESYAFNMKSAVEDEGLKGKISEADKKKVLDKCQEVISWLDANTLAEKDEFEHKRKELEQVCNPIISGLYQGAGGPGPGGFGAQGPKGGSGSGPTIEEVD

[15] = molecular target: T1, Heat shock 70 kDa protein 1A; assay: Hsp70 inhibitors, probe displacement, primary screen, biochemical, fluorescence polarization (AID 583)
[16] = molecular target: T2, Replicative DNA helicase DnaB (Mycobacterium tuberculosis, UniProt P9WMR3); assay: DnaB intein splicing inhibitors, dose response, biochemical, cell-free fluorescence (AID 449749); assay type: functional
T2 sequence (P9WMR3 whole entry): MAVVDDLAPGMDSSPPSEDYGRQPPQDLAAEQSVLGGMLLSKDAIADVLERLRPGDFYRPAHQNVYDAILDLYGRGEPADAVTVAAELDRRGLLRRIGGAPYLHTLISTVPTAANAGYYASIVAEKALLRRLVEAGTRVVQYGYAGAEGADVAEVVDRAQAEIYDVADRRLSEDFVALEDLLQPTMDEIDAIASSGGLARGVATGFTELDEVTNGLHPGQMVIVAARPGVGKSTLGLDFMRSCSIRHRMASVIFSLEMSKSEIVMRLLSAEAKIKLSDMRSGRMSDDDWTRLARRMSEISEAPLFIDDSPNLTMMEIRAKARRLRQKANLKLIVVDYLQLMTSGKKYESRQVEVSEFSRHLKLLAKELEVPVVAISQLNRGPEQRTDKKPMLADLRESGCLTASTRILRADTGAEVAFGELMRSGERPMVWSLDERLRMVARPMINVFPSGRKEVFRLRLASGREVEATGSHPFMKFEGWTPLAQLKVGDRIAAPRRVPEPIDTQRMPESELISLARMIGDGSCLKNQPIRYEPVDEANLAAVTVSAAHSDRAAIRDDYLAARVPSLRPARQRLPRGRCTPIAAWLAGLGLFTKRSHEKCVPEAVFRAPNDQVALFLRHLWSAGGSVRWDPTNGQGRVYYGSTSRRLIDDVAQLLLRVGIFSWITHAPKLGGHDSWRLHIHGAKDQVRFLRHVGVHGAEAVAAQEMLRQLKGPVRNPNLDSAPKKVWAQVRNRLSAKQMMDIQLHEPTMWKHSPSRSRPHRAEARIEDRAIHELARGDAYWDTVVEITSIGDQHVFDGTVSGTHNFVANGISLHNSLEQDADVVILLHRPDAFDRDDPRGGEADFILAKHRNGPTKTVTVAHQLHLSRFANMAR

[17] = molecular target: T3, Protein RecA (Mycobacterium tuberculosis, UniProt P9WHJ3); assay: Fluorescence Cell-Free Homogeneous Dose Retest to Identify Inhibitors of RecA-Intein Splicing Activity. [Related pubchem assays (depositor defined):AID2097, AID2223, AID489010, AID492950]; assay type: functional
T3 sequence (P9WHJ3 whole entry): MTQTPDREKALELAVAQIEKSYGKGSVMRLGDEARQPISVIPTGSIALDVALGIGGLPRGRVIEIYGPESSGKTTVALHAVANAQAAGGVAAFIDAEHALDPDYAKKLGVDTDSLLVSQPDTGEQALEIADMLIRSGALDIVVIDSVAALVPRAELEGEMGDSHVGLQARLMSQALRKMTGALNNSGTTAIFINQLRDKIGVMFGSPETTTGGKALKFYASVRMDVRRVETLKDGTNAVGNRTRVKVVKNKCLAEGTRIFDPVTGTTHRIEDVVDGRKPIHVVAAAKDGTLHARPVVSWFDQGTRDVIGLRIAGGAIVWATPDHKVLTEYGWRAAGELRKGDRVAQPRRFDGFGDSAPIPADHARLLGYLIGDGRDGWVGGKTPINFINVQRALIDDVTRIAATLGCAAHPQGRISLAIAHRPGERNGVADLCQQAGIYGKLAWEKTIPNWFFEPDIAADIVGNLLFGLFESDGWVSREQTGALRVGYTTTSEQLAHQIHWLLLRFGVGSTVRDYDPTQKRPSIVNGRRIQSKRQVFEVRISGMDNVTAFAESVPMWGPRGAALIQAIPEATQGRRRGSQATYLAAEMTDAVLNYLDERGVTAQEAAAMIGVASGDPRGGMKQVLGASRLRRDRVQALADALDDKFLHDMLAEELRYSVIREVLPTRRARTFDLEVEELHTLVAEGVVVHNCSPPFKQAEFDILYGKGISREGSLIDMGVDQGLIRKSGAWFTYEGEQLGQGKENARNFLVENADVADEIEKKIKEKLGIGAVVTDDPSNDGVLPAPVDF

[18] = molecular target: T4, Bcl-2-like protein 10 (Homo sapiens, UniProt Q9HD36); assay: displacers of TR3 peptide from Bcl-B, primary screen, selectivity assay for Bfl-1 inhibitor project, biochemical, fluorescence polarization, FITC-TR3 peptide (AID 748);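 also: fluorescence polarization from a fluorescein-labelled TR3 peptide binding purified Bcl-B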
T4 sequence (Q9HD36 whole entry): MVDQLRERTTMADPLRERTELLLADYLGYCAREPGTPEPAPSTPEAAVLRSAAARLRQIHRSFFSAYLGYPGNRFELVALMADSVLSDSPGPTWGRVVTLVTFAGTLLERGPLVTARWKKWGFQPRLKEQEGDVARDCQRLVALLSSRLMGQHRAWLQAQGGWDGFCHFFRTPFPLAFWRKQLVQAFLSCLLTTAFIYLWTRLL

[19] = molecular target: T5, SUMO-activating enzyme (Homo sapiens, UniProt Q9UBT2); assay: SUMOylation inhibitor hit validation, confirmation, SUMOylation inhibitor project, biochemical, AlphaScreen (AID 2018); assay type: functional
T5 sequence (Q9UBE0 whole entry): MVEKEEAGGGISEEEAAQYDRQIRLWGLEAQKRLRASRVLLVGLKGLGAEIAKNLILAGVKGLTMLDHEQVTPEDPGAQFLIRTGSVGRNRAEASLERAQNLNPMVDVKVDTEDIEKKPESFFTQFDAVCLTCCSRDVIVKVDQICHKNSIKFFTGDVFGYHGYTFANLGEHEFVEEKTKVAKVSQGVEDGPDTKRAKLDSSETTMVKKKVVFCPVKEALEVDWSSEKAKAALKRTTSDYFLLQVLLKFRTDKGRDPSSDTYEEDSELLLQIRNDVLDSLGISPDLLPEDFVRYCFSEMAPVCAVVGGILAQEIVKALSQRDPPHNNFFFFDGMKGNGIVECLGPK
T5 sequence (Q9UBT2 whole entry): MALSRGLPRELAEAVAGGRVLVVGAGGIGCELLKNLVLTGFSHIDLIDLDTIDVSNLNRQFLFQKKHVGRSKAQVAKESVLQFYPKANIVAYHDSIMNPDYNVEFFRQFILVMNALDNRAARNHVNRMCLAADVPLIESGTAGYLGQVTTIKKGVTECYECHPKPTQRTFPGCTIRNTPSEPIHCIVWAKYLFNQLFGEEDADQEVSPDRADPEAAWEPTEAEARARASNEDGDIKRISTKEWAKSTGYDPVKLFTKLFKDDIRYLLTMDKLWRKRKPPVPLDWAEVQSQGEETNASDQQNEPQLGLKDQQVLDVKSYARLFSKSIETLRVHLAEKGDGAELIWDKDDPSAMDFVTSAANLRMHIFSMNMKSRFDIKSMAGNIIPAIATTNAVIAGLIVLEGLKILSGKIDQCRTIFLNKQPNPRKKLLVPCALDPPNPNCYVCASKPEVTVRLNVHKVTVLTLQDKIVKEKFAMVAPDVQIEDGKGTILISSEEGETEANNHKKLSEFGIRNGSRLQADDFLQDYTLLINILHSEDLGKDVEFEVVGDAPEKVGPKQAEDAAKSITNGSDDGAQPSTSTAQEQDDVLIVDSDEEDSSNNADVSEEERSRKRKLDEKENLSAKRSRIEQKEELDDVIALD

[20] = molecular target: T5, SUMO-activating enzyme; assay: inhibitors of in vitro SUMOylation cascade, primary screen, biochemical, HTRF, uHTS (AID 2006); assay type: protein-complex assay
[21] = molecular target: Induced myeloid leukemia cell differentiation protein Mcl-1 (Homo sapiens, UniProt Q07820); assay: MCL1-BIM BH3 interaction inhibitors, dose response, biochemical, fluorescence polarization, BIM-BH3 peptide, 1536-well (AID 2217)
Sequence of Induced myeloid leukemia cell differentiation protein Mcl-1 (Q07820 whole entry): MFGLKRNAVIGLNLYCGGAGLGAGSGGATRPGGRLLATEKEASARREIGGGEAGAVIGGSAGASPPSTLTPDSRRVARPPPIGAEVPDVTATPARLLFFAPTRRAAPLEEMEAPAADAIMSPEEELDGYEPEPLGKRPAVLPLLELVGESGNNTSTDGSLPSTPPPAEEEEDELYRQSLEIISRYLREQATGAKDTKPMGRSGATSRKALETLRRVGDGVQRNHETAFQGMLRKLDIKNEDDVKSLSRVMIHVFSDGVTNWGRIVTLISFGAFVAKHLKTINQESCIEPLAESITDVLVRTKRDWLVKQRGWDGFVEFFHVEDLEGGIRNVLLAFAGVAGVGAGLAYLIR

[22] = molecular target: T6, Estrogen receptor beta (Homo sapiens, UniProt Q92731);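 also: recombinant ER-beta bound to coactivator SRC1 peptide in presence of estradiol agonist; inhibitors block coactivator peptide binding and lower the FRET signal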
T6 sequence (Q92731 whole entry): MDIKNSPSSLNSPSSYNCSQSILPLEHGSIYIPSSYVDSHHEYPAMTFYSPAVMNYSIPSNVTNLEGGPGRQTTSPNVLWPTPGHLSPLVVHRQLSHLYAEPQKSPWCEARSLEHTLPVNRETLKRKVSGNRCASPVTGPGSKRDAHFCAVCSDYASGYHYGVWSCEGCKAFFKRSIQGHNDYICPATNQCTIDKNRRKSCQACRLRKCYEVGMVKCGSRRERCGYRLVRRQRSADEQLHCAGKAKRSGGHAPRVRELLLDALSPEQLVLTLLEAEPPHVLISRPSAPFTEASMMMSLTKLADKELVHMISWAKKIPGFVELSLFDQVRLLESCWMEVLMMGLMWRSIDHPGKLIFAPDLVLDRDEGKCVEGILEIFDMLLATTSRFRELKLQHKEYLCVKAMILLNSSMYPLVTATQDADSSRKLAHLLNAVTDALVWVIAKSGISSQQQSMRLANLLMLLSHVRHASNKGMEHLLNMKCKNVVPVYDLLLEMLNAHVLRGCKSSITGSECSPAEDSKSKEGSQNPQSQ

[23] = molecular target: T6, Estrogen receptor beta; assay: ERβ–SRC-3 coactivator interaction inhibitors, confirmation, orthogonal assay, biochemical, ELISA, streptavidin-HRP readout (AID 1060)
[24] = molecular target: Bcl-2-like protein 1 (Homo sapiens, UniProt Q07817); assay: BCL-XL inhibitors, dose response, selectivity assay for MCL1 inhibitor project, biochemical, fluorescence polarization, 1536-well (AID 2218)
Sequence of Bcl-2-like protein 1 (Q07817 whole entry): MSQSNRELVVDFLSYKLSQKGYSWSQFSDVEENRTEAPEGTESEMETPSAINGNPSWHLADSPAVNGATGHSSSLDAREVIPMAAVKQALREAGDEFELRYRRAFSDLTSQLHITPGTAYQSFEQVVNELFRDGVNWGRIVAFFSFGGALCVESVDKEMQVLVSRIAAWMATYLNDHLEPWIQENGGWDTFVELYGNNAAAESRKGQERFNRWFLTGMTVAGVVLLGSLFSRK

[25] = molecular target: Luciferin 4-monooxygenase (Photinus pyralis, UniProt P08659); assay: Counter Screen for Luciferase-based Assay Positives. [Related pubchem assays: 620, 618, 411 ]
Sequence of Luciferin 4-monooxygenase (P08659 whole entry): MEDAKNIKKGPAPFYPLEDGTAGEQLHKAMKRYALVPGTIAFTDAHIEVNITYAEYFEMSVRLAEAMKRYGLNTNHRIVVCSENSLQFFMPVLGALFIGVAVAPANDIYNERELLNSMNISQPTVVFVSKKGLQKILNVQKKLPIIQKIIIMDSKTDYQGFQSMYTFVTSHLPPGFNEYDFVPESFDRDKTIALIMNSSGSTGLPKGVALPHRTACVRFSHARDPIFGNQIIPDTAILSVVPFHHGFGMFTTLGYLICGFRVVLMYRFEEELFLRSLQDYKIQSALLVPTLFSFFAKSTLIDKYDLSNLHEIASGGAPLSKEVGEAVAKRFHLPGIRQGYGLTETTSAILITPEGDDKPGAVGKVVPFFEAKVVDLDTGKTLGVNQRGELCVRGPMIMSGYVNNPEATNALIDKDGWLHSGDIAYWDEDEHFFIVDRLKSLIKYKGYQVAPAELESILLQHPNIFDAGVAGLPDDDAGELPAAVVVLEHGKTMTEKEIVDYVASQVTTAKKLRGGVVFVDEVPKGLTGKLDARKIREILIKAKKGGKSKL

[26] = system: HT-1080; assay: cytotoxicity in HT1080 fibrosarcoma cells, cell-based, fluorescence readout (AID 620); assay type: functional; conditions: Homo sapiens

CC1C/C(=C/c2ccncc2)C(=O)/C(=C/c2ccncc2)C1 (stereo unspecified)
EC50 [1]: > 120 µM (not active)
EC50 [2]: > 60 µM (not active)
CC50 [3]: > 1.22 µM (not active)
EC50 [4]: 1.1 µM (inconclusive)
EC50 [5]: > 120 µM (not active)
EC50 [6]: 1.01 µM (inconclusive)
EC50 [7]: 2.3 µM (inconclusive)
EC50 [8]: 2.23 µM (inconclusive)
IC50 [9]: 54 µM (inactive)
AC50 [10]: 4.23 µM (active)
EC50 [11]: 0.291 µM (active)
AC50 [12]: 3.66 µM (active)

CC1CCN(C(C(=O)Nc2ccc3c(c2)OCO3)c2ccccc2)CC1 (stereo unspecified)
IC50 [13]: 0.976 µM (active)

CC(=O)N1CCC2(CC1)C(C#N)=C(N)Oc1[nH]nc(C)c12
IC50 [14]: > 100 µM (not active)
IC50 [15]: > 100 µM (not active)
AC50 [16]: 8.21 µM (active)
EC50 [17]: 1.36 µM (active)

O=c1nc2s/c(=C\c3ccco3)c(=O)n2nc1Cc1ccc(F)cc1
IC50 [18]: 14.7 µM (active)
IC50 [19]: 7.36 µM (active)
IC50 [20]: 38.3 µM (active)
IC50 [21]: > 109 µM (not active)
IC50 [22]: 2.35 µM (active)
IC50 [23]: 0.987 µM (not active)
IC50 [24]: > 109 µM (not active)

c1ccc(-c2ccc(-c3nc(-c4ccncc4)no3)cc2)cc1
EC50 [25]: 4.37 µM (active)
EC50 [26]: > 50 µM (not active)
